# Measurements taken from patent US11020358B2, “Method for the anti-senescence of and/or rejuvenating stem cells” (GWO XI STEM CELL APPLIED TECHNOLOGY CO., LTD., priority 2014, dated 2021).
# Tests used:
# Assay type in all cases: cell-based, human
# [1] = tested on: ADSCs; assay: Microarray analysis of gene expression in ADSCs; conditions: H2O2+TC6 group ADSCs, H2O2 group set as one fold; p < 0.05
# Method: Four portions of equal volume of the above culture medium containing the sub-cultured ADSCs were separately handled by adding thereinto H2O2 (purchased from Sigma-Aldrich) at a final concentration of 100 μM and reacting for 2 hours to induce senescence of the ADSCs, replacing the culture medium with a fresh culture medium, adding thereinto TC (trans-cinnamaldehyde, purchased from Sigma-Aldrich) at a final concentration of 0, 2, 4 or 6 μM and reacting for 6 hours, so as to obtain “H2O2 group (i.e., treated with H2O2 for 2 hours, but not treated with TC),” “H2O2+TC2 group (i.e., treated with H2O2 for 2 hours and then treated with 2 μM of TC for 6 hours),” “H2O2+TC4 group (i.e., treated with H2O2 for 2 hours and then treated with 4 μM of TC for 6 hours),” and “H2O2+TC6 group (i.e., treated with H2O2 for 2 hours and then treated with 6 μM of TC for 6 hours)” ADSCs. Each of the total cellular RNA of ADSCs of “H2O2 group” and “H2O2+TC6 group” from Experiment (3-1) was handled as follows. […] The products thus obtained are single strand cDNA of these genes. The cDNA was hybridized with a gene chip (Affymetrix GeneChip Human Genome U133 plus 2.0 Array, Affymetrix). Then, the gene chip was scanned and analyzed with a microarray scanner system (Gene Chip® Scanner 3000).
# [2] = tested on: SIRT1 gene; assay: Quantitative RT-PCR of SIRT1 gene in ADSCs
# Method: Four portions of equal volume of the above culture medium containing the sub-cultured ADSCs were separately handled by adding thereinto H2O2 (purchased from Sigma-Aldrich) at a final concentration of 100 μM and reacting for 2 hours to induce senescence of the ADSCs, replacing the culture medium with a fresh culture medium, adding thereinto TC (trans-cinnamaldehyde, purchased from Sigma-Aldrich) at a final concentration of 0, 2, 4 or 6 μM and reacting for 6 hours, so as to obtain “H2O2 group (i.e., treated with H2O2 for 2 hours, but not treated with TC),” “H2O2+TC2 group (i.e., treated with H2O2 for 2 hours and then treated with 2 μM of TC for 6 hours),” “H2O2+TC4 group (i.e., treated with H2O2 for 2 hours and then treated with 4 μM of TC for 6 hours),” and “H2O2+TC6 group (i.e., treated with H2O2 for 2 hours and then treated with 6 μM of TC for 6 hours)” ADSCs.
# Five portions of equal volume of the above culture medium containing the sub-cultured ADSCs were separately handled by adding thereinto with H2O2 at a final concentration of 100 μM and reacting for 2 hours to induce senescence of the ADSCs. Then, the culture medium in each of the five portions was replaced with a fresh culture medium. The first portion was handed by adding thereinto TC at a final concentration of 6 μM and reacting for 6 hours to obtain “TC6H group” ADSCs. The second to fifth portions were handled by adding thereinto TC at a final concentration of 6 μM, reacting for 6 hours, and then transferring and incubating the ADSCs in DMEM for 12, 24, 48 and 72 hours respectively to obtain “TC12H group,” “TC24H group,” “TC48H group” and “TC72H group” ADSCs. […]
# Each of the cDNA of ADSCs of different groups from Experiment (3-1) was handled as follows. […] The mixture was then placed in a real-time quantitative PCR machine (ABI prism 7700 sequence detection system) to perform a reaction for quantifying the gene expression levels. […]
# [3] = tested on: ADSCs; assay: Adipogenic differentiation assay (Oil Red O); conditions: H2O2 group ADSCs (100 μM 2 h), compared to untreated group
# Method: Four portions of equal volume of the above culture medium containing the sub-cultured ADSCs were separately handled by adding thereinto H2O2 (purchased from Sigma-Aldrich) at a final concentration of 100 μM and reacting for 2 hours to induce senescence of the ADSCs, replacing the culture medium with a fresh culture medium, adding thereinto TC (trans-cinnamaldehyde, purchased from Sigma-Aldrich) at a final concentration of 0, 2, 4 or 6 μM and reacting for 6 hours, so as to obtain “H2O2 group (i.e., treated with H2O2 for 2 hours, but not treated with TC),” “H2O2+TC2 group (i.e., treated with H2O2 for 2 hours and then treated with 2 μM of TC for 6 hours),” “H2O2+TC4 group (i.e., treated with H2O2 for 2 hours and then treated with 4 μM of TC for 6 hours),” and “H2O2+TC6 group (i.e., treated with H2O2 for 2 hours and then treated with 6 μM of TC for 6 hours)” ADSCs. […]
# After being photographed, the oil droplets were extracted from the cells in each sample with isopropanol containing 4% Nonidet P-40. The absorbance of the oil droplets at a wavelength of 510 nm (i.e., OD510) of each sample were measured, wherein the absorbance corresponds to the number of cells in orange-red color (i.e., cells present after adipogenic differentiation).
Structure (SMILES),CCND1 gene expression level [1] [Folds],E2F6 gene expression level [1] [Folds],EIF5 gene expression level [1] [Folds],GADD45B gene expression level [1] [Folds],NYFA gene expression level [1] [Folds],PCNA gene expression level [1] [Folds],PIM1 gene expression level [1] [Folds],POLR3H gene expression level [1] [Folds],SIRT1 gene expression level [1] [Folds],hTERT gene expression level [1] [Folds],p16 gene expression level [1] [Folds],p53 gene expression level [1] [Folds],"expression levels of SIRT1 gene (quantitative RT-PCR) ([2]; ADSCs treated only with 2, 4 and 6 μM TC 6 h (FIG. 5A))","time for which the effect of TC on increasing SIRT1 gene expression is maintained ([2]; H2O2-senescent ADSCs, 6 μM TC 6 h, then incubated in DMEM 12-72 h, no significant difference to TC6H group)","expression levels of SIRT1 gene (quantitative RT-PCR) ([2]; H2O2-senescent ADSCs, 2, 4 and 6 μM TC 6 h, compared to H2O2 group (FIG. 5B))",cell number after adipogenic differentiation (OD510) [3]
"O=C/C=C/c1ccccc1 [TC, trans-cinnamaldehyde]",5.8,2.2,3.4,−4.6,7.2,2,−4.4,2.2,2.4,2,−1.8,−1,significantly increased along with the increment in the concentration of TC,at least 72 hours,significantly increased along with the increment in the concentration of TC,
"OO [H2O2, reference compound]",,,,,,,,,,,,,,,,significantly reduced
